Reference: patent US8974806B2, “Method for producing aqueous active substance compositions of active substances that are hardly soluble in water” (priority 2004, dated 2015)

Key:
Poria placenta FPRL 280 = assay: Agar block method (Bravery test, similar to EN 113) on Southern Yellow Pine wood samples; format: cell-based; details: P. placenta, 6 weeks, weight loss <3% = sufficient protection
Procedure: (§1) The activity threshold of the composition according to the invention from example 1 against wood-destroying Basidiomycetes was determined by the agar block method on wood samples from Pinus spp. (Southern Yellow Pine) of the dimensions 40×15×4 mm^3. The test method with wood samples reduced in size, known as bravery test, is very similar to EN 113 and serves to determine the prophylactic action of wood preservatives against wood-destroying fungi (see A. F. Bravery, Intern. Res. Group Wood Pres., Doc. No. IRG/WP/2113, 5S., Stockholm 1978). For comparison, a solution of epoxiconazole in acetone was tested under the same conditions.
(§2) The wood samples impregnated with the composition according to the invention were, with and without leaching stress, tested according to EN 84. The test was carried out using four different active compound concentrations and in each case 5 parallel samples per active compound concentration and test fungus. The test fungi used were Coniophora puteana BAM Ebw. 15, Poria placenta FPRL 280 and Coriolus versicolor CTB 863A. The destruction of the wood caused by the fungal attack was evaluated using the weight loss of the sample woods, which was determined after 6 weeks. If the weight loss is less than 3% by weight, based on the initial dry weight of the test sample, the protection of the wood achieved by the preservative at a certain active compound concentration is considered to be sufficient. The activity concentration threshold is stated in two concentrations.
(§3) The values determined for a solution of the active compound in acetone are shown for comparison.

[1] = tested on: Coniophora puteana BAM Ebw. 15; assay: as above; format: cell-based; details: C. puteana, 6 weeks, weight loss <3% = sufficient protection
Procedure: as §1, §2, §3

[2] = tested on: wood-destroying soil termites (Reticulitermes santonensis); assay: Forced termite test on treated Southern Yellow Pine wood samples (AWPA E1-97) after leaching stress (DIN EN 84); format: in vivo; details: after leaching (DIN EN 84); 4-week test; lower value = wood no longer sufficiently protected, higher value = minimum concentration for complete protection (score 10)
Procedure: Using water, the aqueous active compound composition according to the invention from example 5 was diluted to three different active compound concentrations. For comparison, α-cypermethrin was dissolved in acetone, and the solution was diluted to the corresponding active compound concentrations using further acetone.
To determine the activity thresholds of the composition according to the invention against wood-destroying soil termites (Reticulitermes santonensis), wood samples from Pinus spp. of the dimensions 25×25×6 mm^3 (Southern Yellow Pine), which met the American test standard AWPA E1-97 (see “Standard method for laboratory evaluation to determine resistance to subterranean termites”, American Wood-Preservers' Association, 2001) were tested in a forced test after leaching stress according to DIN EN 84: 1997-01 (see “accelerated aging of treated wood prior to biological testings”, European Committee for Standardization).
The destruction of the wood caused by the termite attack was, after a 4-week test period, evaluated by visual scoring of the sample woods in accordance with AWPA E1-97. In addition, the mortality rate among the termites was estimated. […]
For the aqueous active compound composition according to the invention, the threshold for α-cypermethrin after leaching was determined to be 9-21 g/m^3. […]

What does the source list for Fc1ccc([C@]2(Cn3cncn3)O[C@H]2c2ccccc2Cl)cc1 (racemic) [Solution of epoxiconazole, epoxiconazole]?
Activity thresholds, with leaching (Poria placenta FPRL 280; with leaching (EN 84)): 110-180 g/m^3; Activity thresholds, without leaching (Poria placenta FPRL 280; without leaching): <190 g/m^3; Activity thresholds, with leaching ([1]; with leaching (EN 84)): 110-160 g/m^3; Activity thresholds, without leaching ([1]; without leaching): <190 g/m^3

CC1(C)C(C=C(Cl)Cl)C1C(=O)OC(C#N)c1cccc(Oc2ccccc2)c1 (stereo not drawn) [α-cypermethrin] was tested. Which “threshold for α-cypermethrin after leaching” value [2] did it give?
Its value is “above 21 g/m^3”.
